Source: US9527834B2, “Substituted 1-benzylquinoxalin-2(1H)-one analogs as positive allosteric modulators of muscarinic acetylcholine receptor M1” (Vanderbilt University, priority 2013, dated 2016)

Biological target: T1, mAChR M1 (Homo sapiens, UniProt P11229)
T1 construct: expressed in transfected cells; host or cells: CHO-K1
T1 sequence (P11229 1-460): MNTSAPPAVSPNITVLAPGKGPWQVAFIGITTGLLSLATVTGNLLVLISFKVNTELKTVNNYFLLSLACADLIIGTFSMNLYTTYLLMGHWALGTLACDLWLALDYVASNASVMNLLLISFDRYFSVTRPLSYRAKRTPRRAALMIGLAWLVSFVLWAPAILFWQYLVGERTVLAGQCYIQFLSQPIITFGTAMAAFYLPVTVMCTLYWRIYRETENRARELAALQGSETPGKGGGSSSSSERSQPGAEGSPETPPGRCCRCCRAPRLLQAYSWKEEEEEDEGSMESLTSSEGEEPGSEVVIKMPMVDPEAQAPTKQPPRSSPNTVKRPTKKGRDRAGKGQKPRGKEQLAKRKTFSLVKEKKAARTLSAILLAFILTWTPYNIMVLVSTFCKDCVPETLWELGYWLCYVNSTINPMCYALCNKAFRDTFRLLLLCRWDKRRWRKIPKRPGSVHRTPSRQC
Test: mAChR M1 cell-based functional assay (calcium mobilization, potentiation of EC20 acetylcholine response)
Details: mAChR M1-expressing CHO-K1 cells; calcium flux; >10 μM estimated for low potency (no plateau) with >20% increase in ACh response
Source text: Chinese hamster ovary (CHO-K1) cells stably expressing rat (r)M1 were purchased from the American Type Culture Collection and cultured according to their indicated protocol. CHO cells stably expressing human (h)M2, hM3, and hM5 were described previously (Levey, A. I., et al., J Neurosci. 1991, 11, 3218-3226.); hM1 and hM4 cDNAs were purchased from Missouri S&T cDNA Resource; rM4 cDNA was provided by T. I. Bonner (National Institutes of Health, Bethesda, Md.). rM2 and rM3 were cloned from a rat brain cDNA library and sequence verified. hM1, rM2, rM3, hM4, and rM4 cDNAs were used to stably transfect CHO-K1 cells purchased from the American Type Culture Collection using Lipofectamine2000. […]
Calcium flux was measured using the Functional Drug Screening System (FDSS) 6000 (Hamamatsu Corporation, Tokyo, Japan) as an increase in the fluorescent static ratio. […] Agonist activity was analyzed as a concentration-dependent increase in calcium mobilization upon compound addition. Positive allosteric modulator activity was analyzed as a concentration-dependent increase in the EC20 acetylcholine response. Antagonist activity was analyzed as a concentration-dependent decrease in the EC80 acetylcholine response. […]

Row | EC50 [µM] | Compound
1 | 3.45 | Cn1cc2c(-c3cc(F)c(Cn4c(=O)cnc5ccccc54)c(F)c3)cccc2n1 [Compound B1, 1-(2,6-difluoro-4-(2-methyl-2H-indazol-4-yl)benzyl)quinoxalin-2(1H)-one]
2 | > 10 | Cn1cc(-c2ccc(Cn3c(=O)cnc4ccccc43)cc2)cn1 [Compound B2]
